From a melting point compilation (Tetko et al.; mined from patent text by program, amines drawn as free bases though some values may be those of a salt) come the findings set out here.

Structures are written as SMILES. A value given as a limit tells only on which side of the number the result lay.

For orientation: melting point means the temperature, or range, at which the solid turns liquid. On to `Cc1ccc(=O)n(C2c3cc(C#N)ccc3OC(C)(C)C2O)n1` (stereo not drawn), for which the melting point is > 257 °C.

`Cc1ccccc1-n1cc(-c2ccccc2)c(CBr)n1` had a melting point of 67 °C.

Regarding `COc1ccc2c(c1)c(C)c(-c1ccc(O)cc1)n2Cc1ccc(OCCN2CCCCC2)cc1`, the melting point was in the range of 87 to 90 °C.

In turn, `CC(C)C1(C)N=C(c2ccccc2C(=O)O)NC1=S` (stereo not drawn) yielded a melting point of 192 to 198 °C.

On to `CC(C)(C)OC(=O)NCCOc1noc2ccc(Cl)cc12`, for which the melting point is 106 to 107 °C.

Regarding `O=c1c2cc(F)c(N3CCCC3)nc2n(-c2ccc(F)cc2F)c(=O)n1OCc1ccccc1`, the melting point was in the range of 183 to 185 °C.

Consider `CCc1cccc(CC)c1NC(=O)NC(c1ccccc1)c1ccccc1`, for which the melting point is 238 to 240 °C.

The molecule `COC(=O)c1c(SC(C)C)c2cc(OC)ccc2n1C` returned a melting point of 93 to 95 °C.

As to `COc1cc(Cl)c(N)c(C(=O)O)c1OC`, the melting point was 140 to 142 °C.

In turn, `O=C(N[C@H](Cc1ccc(Oc2ccccc2)cc1)[C@@H](O)c1ccc(F)cc1)c1ccc(F)c2ccccc12` (racemic) yielded a melting point of 104 to 105 °C.

`CC(=O)N(O)Cc1cccc([N+](=O)[O-])c1` returned a melting point of 80 °C.

In the case of `Cc1oc(-c2ccccc2)nc1CCOc1ccc(CCC#N)cc1`, the melting point was 109 to 110 °C.

`CNc1nc(N)ncc1-c1cccc(Cl)c1Cl` yielded a melting point of 233 to 237 °C.

Molecule `O=C1CCc2c(Cl)sc(-c3ccncc3)c21` yielded a melting point of 163 to 165 °C.

The molecule `CS(=O)(=O)Nc1cc(C(O)CNCCCCCCOCCC2CCCCC2)ccc1O` (stereo not drawn) displayed a melting point of 99 to 101 °C.

In turn, `CCOC(=O)c1cc2ccc(C#N)cc2[nH]1` registered a melting point of 176 °C.

In the case of `CC(C)c1cccc(C(C)C)c1NC(=O)NCC1(c2ccc(N(C)C)cc2)O[C@H](C)[C@@H](C)O1`, the melting point was in the range of 165 to 167 °C.

Turning to `O=[N+]([O-])c1cccc2c(Cl)c(Cl)cnc12`, the melting point was found to be 123 °C.

In turn, `CCNC(=O)c1c([Si](C)(C)C)ccc(/C=C/[N+](=O)[O-])c1Cl` registered a melting point of 104 to 106 °C.

Molecule `CN(c1ccc(O)cc1)S(=O)(=O)c1ccc(C(F)(F)F)cc1` displayed a melting point of 145 to 146 °C.

For `CCc1ncc([N+](=O)[O-])n1CCS(=O)(=O)CC`, the melting point is 130 to 140 °C.

For the molecule `CC(=O)NC(C)C(C)n1ncn(-c2ccc(N3CCN(c4ccc(O)cc4)CC3)cc2)c1=O` (stereo not drawn), the melting point stood at 264 °C.

With `CNC(=S)NCCCCCC1CCSS1` (stereo not drawn), the melting point lay in the range of 64 to 65 °C.

`CC(C)(C)OC(=O)NCCCCC/C=C/C(=O)O` displayed a melting point of 76 to 78 °C.

Molecule `Cc1ccc(S(=O)(=O)OC2CCc3[nH]c4ccc(C)cc4c3C2)cc1` (stereo not drawn) gave a melting point of 125 to 127 °C.

On to `COC(=O)Nc1nc2cc(C(=NO)c3ccc(F)cc3)ccc2[nH]1`, for which the melting point is > 315 °C.

The molecule `COc1ccc2c(c1)c(C=O)cn2CCCCl` came in with a melting point of 75 to 76 °C.

The molecule `O=[N+]([O-])c1ccccc1NCc1ccco1` returned a melting point of 85.6 °C.

`O=C(O)c1cccc2c(Cl)c3ccccc3cc12` showed a melting point of 275 to 277 °C.

The molecule `Cc1cc(C)c(N2CCCc3c2nn(C)c3C(=O)N2CCc3ccccc3C2)c(C)c1` had a melting point of 80.3 to 87.7 °C.

Molecule `C(#Cc1ccccc1)CCN1CCC(c2ccccc2)CC1` displayed a melting point of 65 to 66 °C.

In turn, `COC1(OC)C=Cc2cc(Cc3cnc(N)nc3N)cc(OCC3CC3)c2O1` registered a melting point of 204 to 206 °C.

`COC1CCCNC(=O)C1` (stereo not drawn) showed a melting point of 70 to 73 °C.

As for `CC(C)(C)[Si](C)(C)O[C@@H]1C[C@]2(O)C[C@@H](OC2=O)C1=O`, the melting point is 92 to 95 °C.

Molecule `CN(c1cccc2cc(C(=O)NCC(C)(C=O)SCc3ccccc3)[nH]c12)S(=O)(=O)c1cccs1` (stereo not drawn) displayed a melting point of 149 to 150 °C.

As for `COc1cc2ncnc(N3CCC(CCN4C=CC=NS4(=O)=O)CC3)c2cc1OC`, the melting point lay in the range of 176 to 178 °C.

As for `CCOC(=O)CC[C@H](NC(=O)c1ccc(C(=Cc2cnc3nc(NC(=O)C(C)(C)C)nc(O)c3c2)COC2CCCCO2)cc1)C(=O)OCC` (stereo partly drawn), the melting point lay within 273 to 275 °C.

In turn, `Cc1c(Sc2cc(Cl)c(Cl)cc2Cl)cc(C(C)(C)C)c(O)c1C(=O)Nc1ccc([N+](=O)[O-])cc1C(F)(F)F` displayed a melting point of 179 to 180 °C.

Molecule `Nc1nc(Cl)cc(NC2C=CC(CO)C2)n1` (stereo not drawn) displayed a melting point of 132 to 134 °C.

In turn, `O=C(O)CCC(CC=Cc1ccccc1Cl)(C(=O)C=Cc1ccc(Cl)cc1)c1ccccc1` (stereo not drawn) came in with a melting point of 90 to 125 °C.

Consider `CC(C)Cn1c(CNC(=O)OC(C)(C)C)c(-c2ccccc2)c2cc(-c3nc(N)cs3)ccc2c1=O`, for which the melting point was in the range of 195 to 196 °C.

In turn, `O=Cc1ccc(OCCBr)c2ccccc12` yielded a melting point of 83 to 84 °C.

Molecule `COc1cc(CCCO)c(Br)cc1OCc1ccc(Cl)cc1Cl` registered a melting point of 102 to 103 °C.

`CNc1nccc2c1nnn2Cc1ccccc1` showed a melting point of 269 to 273 °C.

Turning to `CN1CCN(S(=O)(=O)c2ccc([N+](=O)[O-])cc2[N+](=O)[O-])CC1`, the melting point lay in the range of 164 to 165 °C.

Molecule `O=[N+]([O-])C=Cc1cccc(Cl)c1Cl` returned a melting point of 89 to 91 °C.

As for `CCn1c2c(c3ccccc31)S(=O)(=O)N(C)C(C(=O)Nc1ccccc1)=C2O`, the melting point is 268 °C.

As to `OCc1cccc(-c2ccc3nnn(Cc4ccc5ncccc5c4)c3n2)c1`, the melting point was 191 to 193 °C.

In the case of `CCCCCNC(=O)Nc1ccc(N(C)C)cc1C(=O)NCC1CCN(C(c2ccccc2)c2ccccc2)CC1`, the melting point turned out to be 218 °C.

As for `Cc1cn(-c2nc(C3=Nc4ccc(-c5ccc(F)cc5)cc4NC(=O)C3)cs2)cn1`, the melting point is 229 °C.

Regarding `Cc1nc(-c2ccc(NS(=O)(=O)c3sc4ccc(F)cc4c3C)c(S(C)(=O)=O)c2)cs1`, the melting point fell in the range of 217 to 220 °C.

`CS(=O)c1ncccc1C(=O)c1cnoc1C1CC1` (stereo not drawn) returned a melting point of 148 to 152 °C.

`CN(C)c1cccc(CC(=O)Cc2cccc(Cl)c2)c1` gave a melting point of 58 to 60 °C.

As to `CCCC(=O)c1cc2c(OCC)cc(C(=O)OCC)nc2cc1C`, the melting point fell in the range of 123 to 124 °C.

On to `Cc1cc(Br)cnc1CCCCNc1ncc(Cc2ccc(O)cc2)c(=O)[nH]1`, for which the melting point was in the range of 232 to 234 °C.

`CC1Oc2c(Cc3ccccc3)cc(C=O)cc2NC1=O` (stereo not drawn) registered a melting point of 163 to 166 °C.

Molecule `CC(C)(C)OC(=O)CN1CC(c2cccs2)SCC(N)C1=O` (stereo not drawn) showed a melting point of 81 to 82 °C.

As for `CCCCCCCCCCCCCCCCOC[C@@H]1OCCC[C@H]1OP(=O)([O-])OCC[N+](C)(C)C` (relative stereo), the melting point fell in the range of 220 to 224 °C.

For `CCCc1c(OCCCCCC(=O)NCCc2cccnc2)ccc(C(C)=O)c1O`, the melting point fell in the range of 76 to 78 °C.

The molecule `Cc1nc(Nc2ccc(Cl)cc2)sc1-c1nc2ccccc2c(=O)n1-c1ccccc1` registered a melting point of 230 to 232 °C.

Molecule `O=C(O)C[C@@H](NC(=O)CN1C[C@H](c2ccccc2)Oc2ccc(NC(=O)NCc3ccccc3)cc2C1=O)c1ccccc1` registered a melting point of 138 to 140 °C.

On to `CC(CCCC(O)(C(F)(F)F)C(F)(F)F)C1CCC2C3C=CC4=CC(=O)C5OC5C4(C)C3CCC12C` (stereo not drawn), for which the melting point lay within 181 to 184 °C.

In turn, `O=C(O)c1cn(-c2ccc(SC(F)(F)F)cc2)cn1` displayed a melting point of 247 to 248 °C.
